Activity calls are given as the source filed them. The rule behind the calls is not given here.
Columns and labels:
Aorta [1] = assay: Inhibition of KCl-induced contraction in rabbit aorta at 100 nM; type: functional, tissue-based; conditions: Oryctolagus cuniculus
Aorta [2] = assay: Inhibition of KCl-induced contraction in rabbit aorta at 300 uM; type: functional; conditions: Oryctolagus cuniculus

Structure (SMILES)	Activity (Aorta [1])	inhibition at 300 µM (Aorta [2]) [%]
NC[C@H](O)c1ccc(O)c(O)c1	inactive	–
CC(=O)c1cc(C(C)C)c2c(c1)C(C)(O)CC2 (configuration not stated) [CYLINDRENE]	–	40

Source: ChEMBL document CHEMBL1148052, “Cylindrene, a novel sesquiterpenoid from Imperata cylindrica with inhibitory activity on contractions of vascular smooth muscle” (1994)
